Experimental data: patent US20090181080A1, “Oral cannabinnoid liquid formulations and methods of treatment” (Insys Therapeutics Inc., priority 2007, published 2009)

Assay: Threshold concentration versus duration of effect analysis of Example 35 data
Type: in vivo, human
Method: In Example 38, the individual concentration-time profiles for soft gelatin capsules of Example 35 were analyzed to identify the mean duration of effect in that subject population, for a range of threshold concentrations (e.g., minimum effective concentrations). The results are depicted in FIG. 4.

[1] = 5 mg dose, by dose-proportional scaling
[2] = dose of 10 mg dronabinol, soft gelatin capsules of Example 35 data

SMILES: CCCCCc1cc(O)c2c(c1)OC(C)(C)[C@@H]1CCC(C)=C[C@@H]21 [dronabinol, Delta-9-Tetrahydrocannabinol]
- threshold concentration for a 4 hour duration of effect [1]: approximately 0.28 ng/mL
- threshold concentration for a 6 hour duration of effect [1]: ~0.12 ng/mL
- threshold concentration required for a 4 hour duration of effect [2]: approximately 0.56 ng/mL
- threshold concentration required for a 6 hour duration of action [2]: approximately 0.24 ng/mL
